Assay results taken from PubChem BioAssay (NCI).
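Values below derive from 48-hour exposures of cells grown in 96-well plates, with endpoints linearly interpolated between the two concentrations bracketing the appropriate inhibition level. GI50: concentration for 50% inhibition of growth. The concentration for full growth arrest is given as TGI.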

How the values were obtained:
Experiment in all cases: NCI-60 cell line screen, 48 h
[1] = system: MCF7 breast
[2] = system: BT-549 breast
[3] = system: SF-295 CNS
[4] = system: DU-145 prostate
[5] = system: UO-31 renal
[6] = system: PC-3 prostate
[7] = system: A549 NSCLC
[8] = system: HOP-92 NSCLC
[9] = system: HCT-15 colon
[10] = system: CCRF-CEM leukemia
[11] = system: OVCAR-5 ovarian
[12] = system: HL-60(TB) leukemia
[13] = system: SNB-19 CNS
[14] = system: HOP-62 NSCLC
[15] = system: NCI-H460 lung
[16] = system: NCI-H23 lung
[17] = system: T-47D breast
[18] = system: HCC-2998 colon
[19] = system: OVCAR-8 ovarian
[20] = system: MALME-3M melanoma
[21] = system: OVCAR-3 ovarian
[22] = system: NCI-H522 lung
[23] = system: SK-MEL-5 melanoma
[24] = system: K-562 leukemia
[25] = system: IGROV1 ovarian
[26] = system: TK-10 renal
[27] = system: KM12 colon
[28] = system: SNB-75 CNS
[29] = system: RXF 393 renal
[30] = system: RPMI-8226 leukemia

For `O=C(N/C(=C1/OCCN1Cc1ccccc1)[P+](c1ccccc1)(c1ccccc1)c1ccccc1)c1ccccc1`, the GI50 [1] was 2.71 µM, the TGI [1] was 11.3 µM and the GI50 [2] was 2.47 µM. The TGI [2] was 8.75 µM, the GI50 [3] was 9.92 µM and the TGI [3] was 21.9 µM. It also gave a GI50 [4] of 4.46 µM, a TGI [4] of 17.4 µM and a GI50 [5] of 15.5 µM. The TGI [5] was 29.1 µM, the GI50 [6] was 3.77 µM and the TGI [6] was 16.4 µM. The GI50 [7] was 15.1 µM, the TGI [7] was 54.4 µM and the GI50 [8] was 1.99 µM. The TGI [8] was 7.37 µM, the GI50 [9] was 15.6 µM and the TGI [9] was 30.2 µM. For the same compound, the GI50 [10] was 3.84 µM, the TGI [10] was 29.9 µM and the GI50 [11] was 13.5 µM. It also gave a TGI [11] of 26.8 µM, a GI50 [12] of 1.78 µM and a TGI [12] of 5.46 µM. For the same compound, the GI50 [13] was 2.79 µM, the TGI [13] was 10.7 µM and the GI50 [14] was 11.3 µM. For the same compound, the TGI [14] was 25 µM, the GI50 [15] was 3.71 µM and the TGI [15] was 14.6 µM. For the same compound, the GI50 [16] was 3.16 µM, the TGI [16] was 13.3 µM and the GI50 [17] was 2.41 µM. For the same compound, the TGI [17] was 12.9 µM, the GI50 [18] was 2.68 µM and the TGI [18] was 9.86 µM. It also gave a GI50 [19] of 4.25 µM, a TGI [19] of 16.9 µM and a GI50 [20] of 1.66 µM. For the same compound, the TGI [20] was 3.7 µM, the GI50 [21] was 2.78 µM and the TGI [21] was 10.8 µM. It also gave a GI50 [22] of 1.83 µM, a TGI [22] of 6.36 µM and a GI50 [23] of 1.58 µM. It also gave a TGI [23] of 2.93 µM, a GI50 [24] of 2.08 µM and a TGI [24] greater than 100 µM. The GI50 [25] was 2.47 µM, the TGI [25] was 9.71 µM and the GI50 [26] was 4.06 µM. It also gave a TGI [26] of 16.8 µM, a GI50 [27] of 3.4 µM and a TGI [27] of 11.9 µM. For the same compound, the GI50 [28] was 1.62 µM, the TGI [28] was 10.7 µM and the GI50 [29] was 2.46 µM. It also gave a TGI [29] of 10.3 µM and a GI50 [30] of 1.14 µM.
